# Laboratory results reported in patent publication US10550105B2 (Ribon Therapeutics Inc., priority 2018, dated 2020).
# pIC50: −log10 of the molar value.
# Assays:
# interferon-beta (IFN-β) [1] = test: Induction of interferon-beta levels in CT26 cells in the presence of STING agonist DMXAA (FIG. 3); format: cell-based; conditions: CT26 mouse colon cancer cells
# CT26 tumors = test: Inhibition of tumor growth, murine syngeneic model CT26 (subcutaneous dosing); format: in vivo; conditions: CT26 in BALB/c mice, vs vehicle (FIG. 6)
# Experimental: For the CT26 study BALB/c mice were inoculated subcutaneously at the right flank with CT26 cells for tumor development. Four days after tumor inoculation, 36 mice with tumor size ranging from 40-55 mm^3 (average tumor size 47 mm^3) were selected and assigned into 3 groups using stratified randomization with 12 mice in each group based upon their tumor volumes. The treatments were started from the next day post randomization (defined randomization day as day 0) and were treated with vehicle (0.5% methylcellulose+0.2% Tween 80), Compound 98 (500 mg/kg S.C. QD*21 days), Compound 93A (100 mg/kg S.C. BID*21 days) respectively. The tumor sizes were measured three times per week during the treatment. The entire study was terminated on day 21. Mean tumor volume and SEM for both studies are plotted. Statistical significance, calculated using two-tailed unpaired t-tests in which each treatment group was compared to vehicle control, is indicated by an asterisk. Statistics were performed on groups with less than 20% animal loss (D21 for CT26, D17 for 4T1).
# 4T1-luc2-1A4 tumors = test: Inhibition of tumor growth, murine syngeneic model 4T1 (orthotopic, mammary fat pad); format: in vivo; conditions: 4T1 orthotopic in female BALB/c mice, vs vehicle (FIG. 6)
# From the text: Example G: Inhibition of Tumor Growth by Treatment with PARP7 Inhibitors For the 4T1 study female BALB/c mice were inoculated orthotopically in the mammary fat pad with 4T1-1uc2-1A4 cells for tumor development. Eight days after tumor inoculation, 45 mice with tumor size ranging from 63-88 mm^3 (average tumor size 67 mm^3) were selected and assigned into 3 groups using stratified randomization with 15 mice in each group based upon their tumor volumes. The treatments were started from the next day post randomization (defined randomization day as D0) and were treated with vehicle (0.5% methylcellulose +0.2% Tween 80), Compound 98 (500 mg/kg S.C. QD*21 days), Compound 93A (100 mg/kg S.C. BID*21 days) respectively. The tumor sizes were measured three times per week during the treatment. The entire study was terminated on D20. Mean tumor volume and SEM for both studies are plotted. Statistical significance, calculated using two-tailed unpaired t-tests in which each treatment group was compared to vehicle control, is indicated by an asterisk. Statistics were performed on groups with less than 20% animal loss (D21 for CT26, D17 for 4T1).
# interferon-beta (IFN-β) [2] = test: Induction of interferon-beta levels in RAW264.7 macrophages in the presence of STING agonist DMXAA (FIG. 3); format: cell-based; conditions: RAW264.7 mouse macrophages
# [3] = test system: NCI-H1373 lung cancer cells; test: Inhibition of cancer cell growth in NCI-H1373 lung cancer cells (FIG. 2); format: cell-based, human
# PARP7 [4] = biological target: T1, PARP7 (Homo sapiens (Human), UniProt Q7Z3E1); test: Enzymatic assay for inhibition of PARP7: TR-FRET displacement of biotinylated Probe A from the TIPARP active site; format: binding; conditions: Table A-1
# How it was run: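 Read-out: 665/615 nm emission ratio (ex 320 nm, 90 μs delay) indexing bound TIPARP–Probe A. Final incubation 30 min, 25° C; compounds in dose response. Curve fit of % inhibition vs concentration; Hill slope floating or fixed at 1 (3-parameter).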
# PARP7 [5] = biological target: T1, PARP7; test: Inhibition of PARP7 (Table A-1); format: biochemical; conditions: comparison of separated isomers, see Table A-1
# T1 sequence (Q7Z3E1 whole entry): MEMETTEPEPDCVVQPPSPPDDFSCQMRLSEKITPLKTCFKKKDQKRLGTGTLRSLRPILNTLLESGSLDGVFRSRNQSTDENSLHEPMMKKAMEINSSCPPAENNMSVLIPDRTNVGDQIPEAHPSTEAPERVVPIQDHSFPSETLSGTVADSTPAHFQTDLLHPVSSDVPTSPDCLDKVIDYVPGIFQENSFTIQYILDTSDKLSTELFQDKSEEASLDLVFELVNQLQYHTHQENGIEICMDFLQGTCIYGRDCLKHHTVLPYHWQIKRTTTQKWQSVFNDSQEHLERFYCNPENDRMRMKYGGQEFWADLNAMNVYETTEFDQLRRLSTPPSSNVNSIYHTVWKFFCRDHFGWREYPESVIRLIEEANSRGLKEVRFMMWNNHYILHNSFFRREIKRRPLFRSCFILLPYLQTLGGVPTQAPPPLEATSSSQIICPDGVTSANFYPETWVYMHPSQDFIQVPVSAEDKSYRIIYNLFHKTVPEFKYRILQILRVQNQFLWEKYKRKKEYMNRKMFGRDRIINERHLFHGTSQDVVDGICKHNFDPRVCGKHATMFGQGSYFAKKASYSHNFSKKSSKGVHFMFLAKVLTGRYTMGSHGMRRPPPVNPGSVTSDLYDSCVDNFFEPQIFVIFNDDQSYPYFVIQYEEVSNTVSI
Structure (SMILES),pIC50 (PARP7 [4]),further results
"N#Cc1ccc(N2CCN(C(=O)CCOC[C@@H]3CCCN3c3cn[nH]c(=O)c3C(F)(F)F)CC2)nc1 [Example 98, 6-[4-(3-[[(2S)-1-[6-Oxo-5-(trifluoromethyl)-1,6-dihydropyridazin-4-yl]pyrrolidin-2-yl]methoxy]propanoyl)piperazin-1-yl]pyridine-3-carbonitrile]",> 7.00,interferon-beta (IFN-β) levels (interferon-beta (IFN-β) [1]): induction; tumor growth (CT26 tumors; 500 mg/kg S.C. QD*21 days): significantly reduce tumor growth; tumor growth (4T1-luc2-1A4 tumors; 500 mg/kg S.C. QD*21 days): significantly reduce tumor growth; interferon-beta (IFN-β) levels (interferon-beta (IFN-β) [2]): induction; growth of NCI-H1373 lung cancer cells [3]: dose-dependent decrease in growth
"N#Cc1ccc(N2CCN(C(=O)C[C@H]3CC[C@@H]([C@@H]4CCCN4c4cn[nH]c(=O)c4C(F)(F)F)O3)CC2)nc1 [Example 141B, 6-(4-[2-[(2R,5S)-5-[(2S)-1-[6-oxo-5-(trifluoromethyl)-1,6-dihydropyridazin-4-yl]pyrrolidin-2-yl]oxolan-2-yl]acetyl]piperazin-1-yl)pyridine-3-carbonitrile]",> 7.00,relative potency of the enantiomers / diastereomers (PARP7 [5]): more potent enantiomer
"N#Cc1ccc(N2CCN(C(=O)c3cccc(OCCOc4cccc5c4CN(c4cn[nH]c(=O)c4C(F)(F)F)C5)c3)CC2)nc1 [Example 39, 6-[4-([3-[2-([2-[6-Oxo-5-(trifluoromethyl)-1,6-dihydropyridazin-4-yl]-2,3-dihydro-1H-isoindol-4-yl]oxy)ethoxy]phenyl]carbonyl)piperazin-1-yl]pyridine-3-carbonitrile]",> 7.00,growth of NCI-H1373 lung cancer cells [3]: dose-dependent decrease in growth
"N#Cc1ccc(N2CCN(C(=O)CCOC[C@@H]3c4ccccc4CN3c3cn[nH]c(=O)c3C(F)(F)F)CC2)nc1 (single isomer, unassigned) [Example 93 Isomer A]",> 7.00,tumor growth (CT26 tumors; 100 mg/kg S.C. BID*21 days): significantly reduce tumor growth; tumor growth (4T1-luc2-1A4 tumors; 100 mg/kg S.C. BID*21 days): significantly reduce tumor growth; growth of NCI-H1373 lung cancer cells [3]: dose-dependent decrease in growth
"O=c1[nH]ncc(N2Cc3cccc(N4CCNCC4)c3C2)c1C(F)(F)F [Example 295, 5-(4-(Piperazin-1-yl)isoindolin-2-yl)-4-(trifluoromethyl)pyridazin-3(2H)-one]",6.00 to 7.00,–
"N#Cc1ccc(N2CCC3(CN(C(=O)CCOC[C@@H]4CCCN4c4cn[nH]c(=O)c4C(F)(F)F)C3)C2)nc1 [Example 109, 6-[2-(3-[[(2S)-1-[6-oxo-5-(trifluoromethyl)-1,6-dihydropyridazin-4-yl]pyrrolidin-2-yl]methoxy]propanoyl)-2,6-diazaspiro[3.4]octan-6-yl]pyridine-3-carbonitrile]",6.00 to 7.00,–
"N#Cc1ccc(N2CCN(C(=O)CCOC[C@@H]3C[C@@H](N)CN3c3cn[nH]c(=O)c3C(F)(F)F)CC2)nc1 [Example 486, 6-(4-(3-(((2S,4R)-4-Amino-1-(6-oxo-5-(trifluoromethyl)-1,6-dihydropyridazin-4-yl)pyrrolidin-2-yl)methoxy)propanoyl)piperazin-1-yl)nicotinonitrile]",> 7.00,–
"CC1(C)CC(Nc2cccc3c2CN(c2cn[nH]c(=O)c2C(F)(F)F)C3)CC(C)(C)N1 [Example 300, 5-(4-((2,2,6,6-Tetramethylpiperidin-4-yl)amino)isoindolin-2-yl)-4-(trifluoromethyl)pyridazin-3(2H)-one]",6.00 to 7.00,–
"N#Cc1ccc(N2CCN(C(=O)CCNC(=O)C[C@@H]3CCCN3c3cn[nH]c(=O)c3C(F)(F)F)CC2)nc1 [Example 132, N-[3-[4-(5-cyanopyridin-2-yl)piperazin-1-yl]-3-oxopropyl]-2-[(2S)-1-[6-oxo-5-(trifluoromethyl)-1,6-dihydropyridazin-4-yl]pyrrolidin-2-yl]acetamide]",6.00 to 7.00,–
"N#Cc1ccc(N2CCN(C(=O)CNCC[C@@H]3CCCN3c3cn[nH]c(=O)c3C(F)(F)F)CC2)nc1 [Example 89, 6-[4-[2-([2-[(2S)-1-[6-oxo-5-(trifluoromethyl)-1,6-dihydropyridazin-4-yl]pyrrolidin-2-yl]ethyl]amino)acetyl]piperazin-1-yl]pyridine-3-carbonitrile]",> 7.00,–
"N#Cc1ccc(N2CCN(C(=O)CCOC[C@H]3c4ccccc4CN3c3cn[nH]c(=O)c3Cl)CC2)nc1 [Example 414, (R)-6-(4-(3-((2-(5-Chloro-6-oxo-1,6-dihydropyridazin-4-yl)isoindolin-1-yl)methoxy)propanoyl)piperazin-1-yl)nicotinonitrile]",6.00 to 7.00,–
"N#Cc1ccc(N2CCN(C(=O)c3cc(OC[C@@H]4CCCN4c4cn[nH]c(=O)c4C(F)(F)F)ccn3)CC2)nc1 [Example 73, 6-[4-[(4-[[(2S)-1-[6-oxo-5-(trifluoromethyl)-1,6-dihydropyridazin-4-yl]pyrrolidin-2-yl]methoxy]pyridin-2-yl)carbonyl]piperazin-1-yl]pyridine-3-carbonitrile]",> 7.00,–
"COC[C@@H](COCCC(=O)N1CCN(c2cnc(Cl)cn2)CC1)Oc1cn[nH]c(=O)c1C(F)(F)F [Example 696, (S)-5-((1-(3-(4-(5-Chloropyrazin-2-yl)piperazin-1-yl)-3-oxopropoxy)-3-methoxypropan-2-yl)oxy)-4-(trifluoromethyl)pyridazin-3(2H)-one]",> 7.00,–
"O=C1OCCC1Oc1cccc2c1CN(c1cn[nH]c(=O)c1C(F)(F)F)C2 (stereo not drawn) [Example 202, 5-(4-((2-Oxotetrahydrofuran-3-yl)oxy)isoindolin-2-yl)-4-(trifluoromethyl)pyridazin-3(2H)-one]",> 7.00,–
"N#Cc1cnc(N2CCN(C(=O)c3cncc(OCC4c5ccccc5CN4c4cn[nH]c(=O)c4C(F)(F)F)c3)CC2)nc1 (stereo not drawn) [Example 379, 2-(4-(5-((2-(6-Oxo-5-(trifluoromethyl)-1,6-dihydropyridazin-4-yl)isoindolin-1-yl)methoxy)nicotinoyl)piperazin-1-yl)pyrimidine-5-carbonitrile]",> 7.00,–
"O=C(c1cncc(OCC2c3ccccc3CN2c2cn[nH]c(=O)c2C(F)(F)F)c1)N1CCN(c2ccc(F)cn2)CC1 (stereo not drawn) [Example 375, 5-(1-(((5-(4-(5-Fluoropyridin-2-yl)piperazine-1-carbonyl)pyridin-3-yl)oxy)methyl)isoindolin-2-yl)-4-(trifluoromethyl)pyridazin-3(2H)-one]",> 7.00,–
"N#Cc1cnc(N2CCN(C(=O)CCOCCOc3cn[nH]c(=O)c3C(F)(F)F)CC2)nc1 [Example 590, 2-(4-(3-(2-(6-Oxo-5-(trifluoromethyl)-1,6-dihydropyridazin-4-yloxy)ethoxy)propanoyl)piperazin-1-yl)pyrimidine-5-carbonitrile]",> 7.00,–
"N#Cc1ccc(N2CCN(C(=O)C[C@H]3CC[C@@H](COc4cn[nH]c(=O)c4Cl)O3)CC2)nc1 [Example 582 Isomer C, 6-(4-[2-[(2R,5S)-5-[[(5-Chloro-6-oxo-1,6-dihydropyridazin-4-yl)oxy]methyl]oxolan-2-yl]acetyl]piperazin-1-yl)pyridine-3-carbonitrile]",≤ 6.00,–
"CN1CCN(CCOc2cccc3c2CN(c2cn[nH]c(=O)c2C(F)(F)F)C3)CC1 [Example 226, 5-(4-(2-(4-Methylpiperazin-1-yl)ethoxy)isoindolin-2-yl)-4-(trifluoromethyl)pyridazin-3(2H)-one]",> 7.00,–
"N#Cc1ccc(N2CCN(C(=O)CCOCC(CO)Nc3cn[nH]c(=O)c3C(F)(F)F)CC2)nc1 (stereo not drawn) [Example 529, 6-[4-[3-(3-Hydroxy-2-[[6-oxo-5-(trifluoromethyl)-1,6-dihydropyridazin-4-yl]amino]propoxy)propanoyl]piperazin-1-yl]pyridine-3-carbonitrile]",> 7.00,–
